# In paper PMC12395388 (Regulatory toxicology and pharmacology : RTP, 2024):
# Entries after “also recorded” stand apart in the source; their conditions may differ. Read-outs that look alike come from different tables or passages of the source.
# What was measured:
# [1] = tested on: E. coli WP2 uvrA (pKM101); experiment: Preincubation Ames test, strain WP2 uvrA; assay type: cell-based, Escherichia coli; conditions: for Effectiveness of time of preincubation for most effective S9 / Effectiveness of hamster vs. rat S9s for each positive strain: strain WP2 uvrA (pKM101); for Effectiveness of time of preincubation for most effective S9: 30 vs 60 min; for Effectiveness of hamster vs. rat S9s for each positive strain: H = hamster liver S9, R = rat liver S9; for Mutagenic response in WP2 uvrA (pKM101): any activation condition and preincubation time
# [2] = tested on: Salmonella typhimurium TA100; experiment: Preincubation Ames test, strain TA100; assay type: cell-based; conditions: for Effectiveness of time of preincubation for most effective S9: 30 vs 60 min; for Effectiveness of hamster vs. rat S9s for each positive strain: H = hamster liver S9, R = rat liver S9
# [3] = published by FDA as of September 4, 2024, ref FDA, 2024a; cited from earlier work
# [4] = cited from earlier work
# Ames tester strains = conditions: cited from earlier work
# [5] = tested on: Salmonella typhimurium TA1535; experiment: Preincubation Ames test, strain TA1535; assay type: cell-based; conditions: for Effectiveness of time of preincubation for most effective S9 / More effective %S9 in S9 mix of more effective S9 (H or R) / Effectiveness of hamster vs. rat S9s for each positive strain: strain TA1535; for Effectiveness of time of preincubation for most effective S9: 30 vs 60 min; for Mutagenic response in TA1535: any activation condition and preincubation time; for More effective %S9 in S9 mix of more effective S9 (H or R): 10% vs 30% S9 in the S9 mix; for Effectiveness of hamster vs. rat S9s for each positive strain: H = hamster liver S9, R = rat liver S9
# [6] = PC1 most potent, PC5 least potent; ref FDA, 2024a; cited from earlier work
# [7] = tested on: CHO, V79, L5178Y/Tk+/−, TK6, HepaRG cells; conditions: cell lines as named in the value; ref as given in Table 2 Notes; cited from earlier work
# [8] = tested on: Salmonella typhimurium tester strains TA98, TA100, TA1535, and TA1537, and Escherichia coli strain WP2 uvrA (pKM101); experiment: Preincubation Ames test, five tester strains; assay type: cell-based; conditions: for Effect of length of preincubation on positive responses: 30 min vs 60 min, over all strains
# [9] = tested on: Salmonella typhimurium TA98; experiment: Preincubation Ames test, strain TA98; assay type: cell-based; conditions: for Direct-acting mutagenicity in TA98: no exogenous metabolic activation (no S9); for Effectiveness of time of preincubation for most effective S9: 30 vs 60 min
# [10] = tested on: Salmonella typhimurium TA1537; experiment: Preincubation Ames test, strain TA1537; conditions: strain TA1537; 30 vs 60 min
# [11] = published/posted results, ref representative Ames references of Table 2
# [12] = listed as N-nitroso-N-ethylaniline
# [13] = with S9 activation, listed as N-nitroso-propranolol
SMILES,Effectiveness of time of preincubation for most effective S9 [1],Effectiveness of time of preincubation for most effective S9 ([2]; strain TA100),AI limit [3] [ng/day],Effectiveness of time of preincubation for most effective S9 [5],CPCA Potency Category (PC) [6],other results
"CN(CCC(Oc1cccc2ccccc12)c1cccs1)N=O (centres unmarked) [NDSRI-20, N-Methyl-N-(3-naphthalen-1-yloxy-3-thiophen-2-ylpropyl) nitrous amide]",60min = 30min,30min >60min,100,60min = 30min,,"Mutagenicity in TGR assay ([4]; species as in value, ref as given in Table 2 Notes): Interim AI limit currently in force; mutagenic in rat TGR assay ([Jolly et al., 2024]); Ames response (all S9-mediated except where noted) (Ames tester strains; [11]): Positive"
"CN(C[C@H](O)c1cccc(O)c1)N=O [NDSRI-13, N-[(2R)-2-Hydroxy-2-(3-hydroxyphenyl)ethyl)-N-methylnitrous amide]",,,100,,PC2,
"O=NN1CCN(C2CCCC2)CC1 [SM-10, 1-Cyclopentyl-4-nitrosopiperazine]",60min = 30min,30min ≥60min,400,60min = 30min,PC3,"Effectiveness of hamster vs. rat S9s for each positive strain [1]: H only; Mutagenicity/genotoxicity in mammalian cells in vitro [7]: Genotoxic in HepaRG cells ([Seo et al., 2023])"
"CCN(N=O)C(C)C [SM-3, N-Ethyl-N-propan-2-ylnitrous amide]",60min = 30min,,400,60min = 30min,PC3,"Mutagenicity/genotoxicity in mammalian cells in vitro [7]: Genotoxic in HepaRG, TK6 cells ([Li et al., 2022]; [Seo et al., 2023])"
"CN(CCC=C1c2ccccc2CCc2ccccc21)N=O [NDSRI-18, N-Methyl-N-[3-(2-tricyclo[9.4.0.03,8]pentadeca-1 (15),3,5,7,11,13-hexaenylidene)propyl]nitrous amide]",60min = 30min,60min = 30min,,60min = 30min,,
"CN(N=O)C1CCC(c2ccc(Cl)c(Cl)c2)c2ccccc21 (centres unmarked) [NDSRI-21, N-(4-(3,4-Dichlorophenyl)-1,2,3,4-tetrahydronaphthalen-1-yl)-N-methylnitrous amide]",30min >60min,,100,,PC2,Mutagenic response in WP2 uvrA (pKM101) ([1]; listed as N-nitroso-sertraline): positive only; also recorded: mutagenic; Effectiveness of hamster vs. rat S9s for each positive strain [1]: H only; Effect of length of preincubation on positive responses [8]: greater mutagenic responses with 30-min preincubations than with 60-min preincubations; Mutagenic response in TA1535 ([5]; listed as N-nitroso-sertraline): negative; also recorded: not positive
"CCCCCCOC(=O)NC(=N)c1ccc(N(Cc2nc3cc(C(=O)N(CCC(=O)OCC)c4ccccn4)ccc3n2C)N=O)cc1 [NDSRI-29, Ethyl 3-[[2-[[4-(N-hexoxycarbonylcarbamimidoyl)-N-nitrosoanilino]methyl]-1-methylbenzimidazole-5-carbonyl]-pyridin-2-ylamino]propanoate]",,,400,,PC3,
"CN(CCOC(c1ccccc1)c1ccccc1)N=O [NDSRI-16, N-(2-(Benzhydryloxy)ethyl)-N-methylnitrous amide]",60min >30min,60min = 30min,,60min = 30min,,Effect of length of preincubation on positive responses [8]: possibly N-nitroso-desmethyl-diphenhydramine benefited from a preincubation of 60 min compared with 30 min
"CCN(N=O)c1ccccc1 [SM-8, N-Ethyl-N-phenylnitrous amide]",60min ≥ 30min,,,,,"Mutagenic response in WP2 uvrA (pKM101) [1, 12]: positive only; Mutagenic response in WP2 uvrA (pKM101) ([1]; listed as NEPA): mutagenic; Effect of length of preincubation on positive responses [8]: benefited from a preincubation of 60 min compared with 30 min; Ames response (all S9-mediated except where noted) (Ames tester strains): Positive only with comutagen; Mutagenic response in TA1535 [5, 12]: negative; Mutagenic response in TA1535 ([5]; listed as NEPA): not positive"
"CC(C)N(CC(O)COc1cccc2ccccc12)N=O (centres unmarked) [NDSRI-17, N-(2-Hydroxy-3-naphthalen-1-yloxypropyl)-N-propan-2-ylnitrous amide]",,60min = 30min,1500,60min = 30min,PC4,"S9-mediated mutagenicity in TA100 [2, 13]: mutagenic; Ames response (all S9-mediated except where noted) (Ames tester strains; [11]): Positive; direct-acting in TA98; Direct-acting mutagenicity in TA98 [9]: b Direct acting mutagen in TA98.; Direct-acting mutagenicity in TA98 ([9]; listed as N-nitroso-propranolol): direct acting mutagen; also recorded: direct-acting mutagenicity of N-nitroso-propranolol was limited to TA98; Effectiveness of time of preincubation for most effective S9 ([9]; strain TA98): 60min = 30min; S9-mediated mutagenicity in TA1535 [5, 13]: mutagenic"
"CC(C)N(N=O)C(C)C [SM-5, N,N-Di(propan-2-yl)nitrous amide]",,,1500,60min = 30min,PC5,"Activation condition required for positive responses ([8]; no S9, 10% and 30% rat or hamster liver S9, all strains, listed as NDIPA): positives were seen only with one strain (TA1535) and under one activation condition (preincubation with 30% hamster S9 mixes); also recorded: dependent upon preincubation with 30% hamster S9; also recorded: exclusively mutagenic with hamster liver S9; Mutagenic response in TA1535 [5]: only positive strain; More effective %S9 in S9 mix of more effective S9 (H or R) [5]: 30% only; Effectiveness of hamster vs. rat S9s for each positive strain [5]: H only"
"C[C@H]1CN(N=O)CCc2ccc(Cl)cc21 [NDSRI-14, (5R)-7-Chloro-5-methyl-3-nitroso-1,2,4,5-tetrahydro-3-benzazepine]",60min = 30min,60min = 30min,,60min = 30min,,Effectiveness of time of preincubation for most effective S9 ([9]; strain TA98): 60min = 30min
"CC(C)[C@H](C(=O)O)N(Cc1ccc(-c2ccccc2-c2nn[nH]n2)cc1)N=O [NDSRI-25, (2R)-3-Methyl-2-[nitroso-[[4-[2-(2H-tetrazol-5-yl)phenyl]phenyl]methyl]amino]butanoic acid]",,,,,,"Mutagenicity in TGR assay ([4]; in vivo): Also negative in mouse TGR assay ([Glowienke et al., 2022]); Ames response (all S9-mediated except where noted) (Ames tester strains): Negative"
"CN(CCC(Oc1ccc(C(F)(F)F)cc1)c1ccccc1)N=O (centres unmarked) [NDSRI-22, N-Methyl-N-[3-phenyl-3-[4-(trifluoromethyl)phenoxy]propyl]nitrous amide]",30min >60min,30min only,,60min = 30min,,"More effective %S9 in S9 mix of more effective S9 (H or R) ([2]; strain TA100, 10% vs 30% S9 in the S9 mix): 30% only; Effectiveness of hamster vs. rat S9s for each positive strain ([2]; strain TA100): H only; Effect of length of preincubation on positive responses ([8]; listed as N-nitroso-fluoxetine): greater mutagenic responses with 30-min preincubations than with 60-min preincubations; Mutagenicity in TGR assay ([4]; in vivo): mutagenic in rat TGR assay; Ames response (all S9-mediated except where noted) (Ames tester strains): Positive; More effective %S9 in S9 mix of more effective S9 (H or R) ([9]; strain TA98, 10% vs 30% S9 in the S9 mix): 30% only; Effectiveness of time of preincubation for most effective S9 ([9]; strain TA98): 30min only; Effectiveness of hamster vs. rat S9s for each positive strain ([9]; strain TA98, H = hamster liver S9, R = rat liver S9): H only; More effective %S9 in S9 mix of more effective S9 (H or R) [5]: 30% only; Effectiveness of hamster vs. rat S9s for each positive strain [5]: H only"
"O=NN(c1ccccc1CC(=O)O)c1c(Cl)cccc1Cl [NDSRI-19, 2-[2-(2,6-Dichloro-N-nitrosoanilino)phenyl]acetic acid]",,,1500,,,
"O=NN1CC2CC(C1)c1cc3nccnc3cc12 [NDSRI-15, 8-Nitroso-7,8,9, 10-tetrahydro-6H-6, 10-methanoazepino[4,5-g]quinoxaline]",60min = 30min,60min = 30min,400,60min ≥30min,PC3,Effectiveness of time of preincubation for most effective S9 [10]: 60min ≥30min; Effectiveness of hamster vs. rat S9s for each positive strain ([2]; strain TA100): H only; Effect of length of preincubation on positive responses [8]: benefited from a preincubation of 60 min compared with 30 min; Effectiveness of time of preincubation for most effective S9 ([9]; strain TA98): 60min ≥30min
